Reference: the SangsterLogP compilation

Assay: method code SF-AS, from DOI: 10.1002/zfch.19790190911

logP | SMILES
0.97 | CCCCCCC(=O)NN
-1.58 | CC(=O)NN
0.48 | CCCCCC(=O)NN
0.03 | CCCCCCCCCC(=O)NN
0.62 | CCC(C)c1nnc(N)o1 (stereo not drawn)
0.4 | CC(C)Cc1nnc(N)o1
-1 | CCC(=O)NN
-0.35 | CC(C)(C)C(=O)NN
0.5 | CCCCCCCCC(=O)NN
1 | CCCCCCCC(=O)NN
-0.33 | CCC(C)C(=O)NN (stereo not drawn)
-0.63 | CC(C)C(=O)NN
-0.62 | CCCC(=O)NN
-0.31 | CC(C)CC(=O)NN
-0.11 | CCCCC(=O)NN

Further lines, the compound ahead of its results:

SMILES | logP
CC(C)c1nnc(N)o1 | 0.2
Nc1nnc(CCc2ccccc2)o1 | 1.19
CCCCCCCc1nnc(N)o1 | 0.73
Cc1nnc(N)o1 | -0.92
CCCCc1nnc(N)o1 | 0.65
CCc1nnc(N)o1 | -0.3
CCCCCCc1nnc(N)o1 | 1.43
Nc1nnco1 | -1.44
CCCc1nnc(N)o1 | 0.23
Nc1nnc(Cc2ccccc2)o1 | 0.95
CC(C)(C)c1nnc(N)o1 | 0.48
NNC=O | -2.05
CCCCCc1nnc(N)o1 | 1.1
